ChEMBL document CHEMBL4376871, “Synthesis and anti-cancer activity studies of dammarane-type triterpenoid derivatives” (Eur J Med Chem, 2020)
pIC50: −log10 of the molar value. Activity calls are given as the source filed them. The calls are words filed in the database; no cut-off is given here.

Key:
[1] = tested on: A549; experiment: Induction of apoptosis in human A549 cells assessed as increase in cleaved caspase-3 protein expression level at 5 to 20 uM incubated for 12 hrs by Western blot analysis; type: functional, cell-based
[2] = tested on: A549; experiment: Induction of apoptosis in human A549 cells assessed as cell shrinkage at 10 to 20 uM by microscopic analysis; type: functional, cell-based
[3] = tested on: A549; experiment: Induction of apoptosis in human A549 cells assessed as upregulation of Bax protein expression at 5 to 20 uM incubated for 12 hrs by Western blot analysis; type: functional, cell-based
[4] = tested on: A549; experiment: Induction of apoptosis in human A549 cells measured after 12 hrs by Annexin V-FITC/propidium iodide staining-based flow cytometric analysis; type: functional, cell-based
[5] = tested on: A549; experiment: Cell cycle arrest in human A549 cells assessed as decrease in accumulation of cells at G2/M phase at 5 to 10 uM after 24 hrs by propidium iodide staining-based flow cytometric analysis; type: functional
[6] = tested on: A549; experiment: Induction of apoptosis in human A549 cells at 10 to 15 uM after 12 hrs by flow cytometric analysis; type: functional, cell-based
[7] = tested on: A549; experiment: Induction of apoptosis in human A549 cells assessed as upregulation of Cyt c protein expression at 5 to 20 uM incubated for 12 hrs by Western blot analysis; type: functional, cell-based
[8] = tested on: A549; experiment: Suppression of mitochondrial membrane potential in human A549 cells assessed as increase in green fluorescence at 10 uM after 12 hrs by JC-1 staining based flow cytometry (reference value: 0.4%); type: functional
[9] = tested on: A549; experiment: Induction of ROS generation in human A549 cells assessed as intracellular ROS level at 10 to 15 uM after 30 mins by DCFH-DA staining-based flow cytometric analysis; type: functional, cell-based
[10] = tested on: A549; experiment: Cell cycle arrest in human A549 cells assessed as increase in expression of p53 at 5 to 20 uM measured after 12 hrs by Western blot analysis; type: functional, cell-based
[11] = tested on: SGC-7901; experiment: Antiproliferative activity against human SGC7901 cells incubated for 48 hrs and measured after 4 hrs by MTT assay; type: functional, cell-based
[12] = tested on: A549; experiment: Suppression of mitochondrial membrane potential in human A549 cells assessed as increase in green fluorescence at 15 uM after 12 hrs by JC-1 staining based flow cytometry (reference value: 0.4%); type: functional
[13] = Cytotoxicity against human IOSE-144 cells incubated for 48 hrs and measured after 4 hrs by MTT assay; type: cell-based
[14] = tested on: A549; experiment: Cell cycle arrest in human A549 cells assessed as increase in expression of p21 at 5 to 20 uM measured after 12 hrs by Western blot analysis; type: functional, cell-based
[15] = tested on: A549; experiment: Induction of apoptosis in human A549 cells assessed as early apoptotic cells at 10 uM after 12 hrs by Annexin V-FITC/propidium iodide staining-based flow cytometric analysis (reference value: 0.9%); type: functional
[16] = tested on: MCF7; experiment: Potency index, ratio of IC50 for AD-2 to IC50 for test compound for antiproliferative activity against human MCF7 incubated for 48 hrs and measured after 4 hrs by MTT assay; type: functional
[17] = tested on: A549; experiment: Cell cycle arrest in human A549 cells assessed as increase in accumulation of cells at sub G0/G1 phase after 24 hrs by propidium iodide staining-based flow cytometric analysis; type: functional
[18] = tested on: A549; experiment: Potency index, ratio of IC50 for AD-2 to IC50 for test compound for antiproliferative activity against human A549 incubated for 48 hrs and measured after 4 hrs by MTT assay; type: functional
[19] = tested on: A549; experiment: Induction of apoptosis in human A549 cells assessed as decrease in Bcl2 protein expression level at 5 to 20 uM incubated for 12 hrs by Western blot analysis; type: functional, cell-based
[20] = tested on: A549; experiment: Induction of apoptosis in human A549 cells assessed as nuclear condensation at 10 to 20 uM measured after 12 hrs by DAPI staining based fluorescence microscopic analysis; type: functional, cell-based
[21] = tested on: A549; experiment: Induction of apoptosis in human A549 cells at 10 to 15 uM in presence of NAC after 12 hrs by flow cytometric analysis; type: functional, cell-based
[22] = tested on: A549; experiment: Induction of apoptosis in human A549 cells assessed as early apoptotic cells at 15 uM after 12 hrs by Annexin V-FITC/propidium iodide staining-based flow cytometric analysis (reference value: 0.9%); type: functional
[23] = tested on: A549; experiment: Induction of apoptosis in human A549 cells assessed as decrease in caspase-9 protein expression level at 5 to 20 uM incubated for 12 hrs by Western blot analysis; type: functional, cell-based
[24] = tested on: PC-3; experiment: Antiproliferative activity against human PC3 cells incubated for 48 hrs and measured after 4 hrs by MTT assay; type: functional, cell-based
[25] = tested on: PC-3; experiment: Potency index, ratio of IC50 for AD-2 to IC50 for test compound for antiproliferative activity against human PC3 incubated for 48 hrs and measured after 4 hrs by MTT assay; type: functional
[26] = tested on: A549; experiment: Induction of ROS generation in human A549 cells assessed as intracellular ROS level at 10 to 15 uM after 30 mins in presence of NAC by DCFH-DA staining-based flow cytometric analysis; type: functional, cell-based
[27] = tested on: MGC-803; experiment: Antiproliferative activity against human MGC803 cells incubated for 48 hrs and measured after 4 hrs by MTT assay; type: functional, cell-based
[28] = tested on: A549; experiment: Cell cycle arrest in human A549 cells assessed as decrease in accumulation of cells at G0/G1 phase at 5 to 10 uM after 24 hrs by propidium iodide staining-based flow cytometric analysis; type: functional
[29] = tested on: A549; experiment: Cell cycle arrest in human A549 cells assessed as increase in accumulation of cells at S phase at 5 to 10 uM after 24 hrs by propidium iodide staining-based flow cytometric analysis; type: functional
[30] = tested on: MGC-803; experiment: Potency index, ratio of IC50 for AD-2 to IC50 for test compound for antiproliferative activity against human MGC803 incubated for 48 hrs and measured after 4 hrs by MTT assay; type: functional
[31] = tested on: A549; experiment: Induction of apoptosis in human A549 cells assessed as appearance of apoptotic bodies at 10 to 20 uM by microscopic analysis; type: functional, cell-based
[32] = tested on: SGC-7901; experiment: Potency index, ratio of IC50 for AD-2 to IC50 for test compound for antiproliferative activity against human SGC7901 incubated for 48 hrs and measured after 4 hrs by MTT assay; type: functional
[33] = tested on: A549; experiment: Induction of apoptosis in human A549 cells assessed as nuclear shrinkage at 10 to 20 uM measured after 12 hrs by DAPI staining based fluorescence microscopic analysis; type: functional, cell-based
[34] = tested on: A549; experiment: Antiproliferative activity against human A549 cells incubated for 48 hrs and measured after 4 hrs by MTT assay; type: functional, cell-based
[35] = tested on: A549; experiment: Induction of apoptosis in human A549 cells assessed as decrease in PARP protein expression level at 5 to 20 uM incubated for 12 hrs by Western blot analysis; type: functional, cell-based
[36] = tested on: A549; experiment: Induction of apoptosis in human A549 cells assessed as increase in cleaved PARP protein expression level at 5 to 20 uM incubated for 12 hrs by Western blot analysis; type: functional, cell-based
[37] = tested on: A549; experiment: Induction of apoptosis in human A549 cells assessed as decrease in caspase-3 protein expression level at 5 to 20 uM incubated for 12 hrs by Western blot analysis; type: functional, cell-based
[38] = tested on: MCF7; experiment: Antiproliferative activity against human MCF7 cells incubated for 48 hrs and measured after 4 hrs by MTT assay; type: functional, cell-based
[39] = tested on: A549; experiment: Induction of apoptosis in human A549 cells assessed as appearance of fragmented apoptotic bodies at 10 to 20 uM measured after 12 hrs by DAPI staining based fluorescence microscopic analysis; type: functional, cell-based
[40] = tested on: A549; experiment: Induction of apoptosis in human A549 cells assessed as increase in cleaved caspase-9 protein expression level at 5 to 20 uM incubated for 12 hrs by Western blot analysis; type: functional, cell-based

Question: Which Activity [1] does the source give for CC(C)(O)CCC[C@@](C)(O)[C@H]1CC[C@]2(C)[C@@H]1[C@H](O)C[C@@H]1[C@@]3(C)CC[C@H](OC(=O)C4CCNCC4)C(C)(C)[C@@H]3CC[C@]12C here?
Answer: The Activity was “Active”.

Question: What about the Activity [2] of the same compound?
Answer: The Activity was “Active”.

Question: What about the Activity [3] of the same compound?
Answer: The Activity was “Active”.

Question: What about the Activity [4] of the same compound?
Answer: The Activity was “Dose-dependent effect”.

Question: What about the Activity [5] of the same compound?
Answer: Its Activity is “Active”.

Question: What about the Activity [6] of the same compound?
Answer: The Activity was “Active”.

Question: What about the Activity [7] of the same compound?
Answer: Its Activity is “Active”.

Question: What about the Activity [8] of the same compound?
Answer: The Activity was 7.5%.

Question: What about the Activity [9] of the same compound?
Answer: The Activity was “Active”.

Question: And the Activity [10]?
Answer: The Activity was “Active”.

Question: And the pIC50 [11]?
Answer: Its pIC50 is 5.15.

Question: And the Activity [12]?
Answer: Its Activity is 27.6%.

Question: And the pIC50 [13]?
Answer: Its pIC50 is less than 4.00.

Question: And the Activity [14]?
Answer: The Activity was “Active”.

Question: And the Activity [15]?
Answer: Its Activity is 27%.

Question: What about the “Ratio IC50” value [16] of the same compound?
Answer: Its value is 5 - 28.

Question: What about the Activity [17] of the same compound?
Answer: Its Activity is “Active”.

Question: And the “Ratio IC50” value [18]?
Answer: The value was 5 - 28.

Question: What about the Activity [19] of the same compound?
Answer: Its Activity is “Active”.

Question: And the Activity [20]?
Answer: The Activity was “Active”.

Question: And the Activity [21]?
Answer: Its Activity is “inactive”.

Question: And the Activity [22]?
Answer: Its Activity is 50%.

Question: And the Activity [23]?
Answer: Its Activity is “Active”.

Question: And the pIC50 [24]?
Answer: The pIC50 was 5.26.

Question: What about the “Ratio IC50” value [25] of the same compound?
Answer: The value was 5 - 28.

Question: What about the Activity [26] of the same compound?
Answer: The Activity was “inactive”.

Question: What about the pIC50 [27] of the same compound?
Answer: Its pIC50 is 5.19.

Question: And the Activity [28]?
Answer: Its Activity is “Active”.

Question: What about the Activity [29] of the same compound?
Answer: Its Activity is “Active”.

Question: And the “Ratio IC50” value [30]?
Answer: Its value is 5 - 28.

Question: And the Activity [31]?
Answer: Its Activity is “Active”.

Question: And the “Ratio IC50” value [32]?
Answer: The value was 5 - 28.

Question: What about the Activity [33] of the same compound?
Answer: The Activity was “Active”.

Question: What about the pIC50 [34] of the same compound?
Answer: The pIC50 was 5.97.

Question: What about the Activity [35] of the same compound?
Answer: The Activity was “Active”.

Question: And the Activity [36]?
Answer: The Activity was “Active”.

Question: What about the Activity [37] of the same compound?
Answer: Its Activity is “Active”.

Question: What about the pIC50 [38] of the same compound?
Answer: Its pIC50 is 5.90.

Question: What about the Activity [39] of the same compound?
Answer: The Activity was “Active”.

Question: And the Activity [40]?
Answer: The Activity was “Active”.
